Laboratory results published in US20070093520A1, “Method of treatment of diarrhea-predominant irritable bowel syndrome in a subject” (priority 2005, published 2007).

Tests used:
[1] = test system: diarrhea-predominant IBS subjects; assay: 3007 Study: IBS-QOL Survey; type: in vivo, human
Description: Subjects were asked to complete the IBS-QOL Survey at Visits 1, 3, and 6 in order to assess possible changes of their QOL.
(§1) Subjects were asked to complete a IBS-QOL Survey at Day 1 (Visit 5 of the core protocol), Month 6 and Month 12 (end of study or early termination) in order to assess possible changes of their QOL. The IBS-QoL survey, a 34 item IBS-specific QoL questionnaire consisting of 8 subscales (i.e., interference with activity; body image; health worry; food avoidance; social reaction; sexual; relationship; and dysphoria) was completed by patients at baseline and at later specified time points (e.g., at week 12 and at week 16 in Study 5050).
For IBS-QOL, Baseline for subjects randomized to the cilansetron treatment group was defined as […] of core Study 3006. For subjects randomized to the placebo group of core Study 3006, Visit 5 of the core Study 3006 was assigned as the Baseline.
Mean changes from Baseline for the IBS-QOL total score and subscale domains were summarized via descriptive statistics at […] and Visit 6 (Month 12) of Study 3007 for subjects randomized to the placebo group in core Study 3006 (or for subjects randomized to the cilansetron treatment group in the core Study 3006, at Visit 5 (Month 3), at Visit 3 (Month 6) and Visit 6 (Month 15) of Study 3007).
For Study 3007, “baseline” was defined as the last post-Baseline visit of Study 3006 (normally Visit 5) for subjects randomized to the placebo group and as Visit 1 of core Study 3006 for subjects randomized to the cilansetron treatment group.
The overall IBS-QOL score and the separate IBS-QOL domain scores (i.e. dysphoria, interference with activity, body image, health worry, food avoidance, social reaction, sexual, and relationship) were summarized by treatment group using descriptive statistics. The calculation of each domain score and the overall score is detailed in the user's manual. For each of the domain scores, as well as for the overall score, the change from Baseline to Endpoint was summarized descriptively. Based on the instruction from the author of the IBS-QOL questionnaire, the missing data of the IBS-QOL questionnaire were handled as follows: • If less than or equal to 20% of the items within a subscore (or total score) were missing for a subject, the subscore (or total score) was the summation of the non-missing scores for that subject; • If more than 20% of the items within a subscore (or total score) were missing, the subscore (or total score) was missing for that subject. Determination of Sample Size

[2] = test system: subjects with ROME II defined IBS-D; assay: 5050 Study: double-blind placebo-controlled prn safety study, adverse events and withdrawals; type: in vivo, human; settings: Study 5050
Description: (§2) The 5050 Study was a double-blind, randomized, placebo-controlled study to evaluate the long-term safety and tolerability of cilansetron 2 mg taken on an as needed (prn) basis for 1 year by male and female subjects with ROME II defined IBS-D. The study was performed in 68 centers. Patients were randomized in a 3:1 ratio to receive either cilansetron 2 mg prn or placebo, up to 3 times a day. Safety parameters were explored by comparing the double-blind groups, average daily doses and treatment exposure. Patient visits were scheduled as follows: Visit 1 (pretreatment), Visit 2 (Day 1), Visit 3 (Month 1), Visit 4 (Month 3), Visit 5 (Month 6), Visit 6 (Month 9), and Visit 7 (Month 12). Safety assessments included: adverse events (AEs)/serious adverse events (SAES); laboratory parameters (pretreatment visit and at Months 1, 6, and 12); electrocardiograms (pretreatment visit and at Months 1, 6, and 12); vital signs (at each visit); physical examinations and body weight (pretreatment visit and at Month 12); prior and concomitant medication use (each visit and/or through spontaneous reporting); stool cards for occult blood (every visit except Visit 1). The number of tablets taken per day was recorded daily through a validated interactive voice response system. Patients who met the ROME criteria for IBS and ROME II criteria for the diarrhea predominant subpopulation were included in the study. Patients with acute colitis of any etiology, history of chronic colitis of any etiology, or a history of intestinal obstruction, stricture, toxic megacolon, gastrointestinal (GI) perforation, or fecal impaction were excluded from the study.
For Study 5050, of a total of 402 patients randomized to treatment, 400 received study medication and 395 were included in the safety analysis (cilansetron, N=301; placebo, N=94). Five patients were excluded because of a lack of a post-baseline safety evaluation. Thirty nine percent of patients in the cilansetron group and 56% in the placebo group withdrew from the study; the differences in withdrawals largely were due to lack of efficacy (15% v. 34%, respectively), followed by other unspecified reasons (16% v. 19%, respectively) and AEs (10% v. 9%, respectively). Most patients (57%) were in the 41 to 64 year age category and 72% of all patients were female.

[3] = test system: subjects with ROME II defined IBS-D; assay: 5050 Study: IBS-QoL survey; type: in vivo, human; design: IBS-QoL subscale score: Interference with activity / IBS-QoL subscale score: Food avoidance / IBS-QoL subscale score: Sexual / IBS-QoL subscale score: Health Worry / IBS-QoL subscale score: Relationship / IBS-QoL subscale score: Body Image / IBS-QoL subscale score: Social Reaction / IBS-QoL subscale score: Dysphoria: scale not given here; settings: Study 5050
Description: as §2, §1

[4] = test system: diarrhea-predominant IBS subjects; settings: human, in vivo
[5] = Table 10.5, time point not stated

Cc1nccn1C[C@H]1CCc2c(c3cccc4c3n2CCC4)C1=O [cilansetron, (R)-(−)-4,5,6,8,9,10-hexahydro-10-[(2-methyl-1H-imidazol-1-yl)methyl]-11H-pyrido-[3,2,1-jk]-carbazol-11-one]
QOL after the start of cilansetron treatment ([1]; Study 3007, P/C): An improvement was observed | improvement of mean IBS-QOL total score from Baseline ([1]; Study 3007, at Endpoint, C/C): 20.1 | mean IBS-QOL total score ([1]; Study 3007, at Endpoint, C/C): 70.7 | improvement of mean IBS-QOL total score from Baseline ([1]; Study 3007, at Endpoint, P/C): 8.9 | mean IBS-QOL total score ([1]; Study 3007, at Endpoint, P/C): 70.9 | mean IBS-QOL total score ([1]; Study 3007, at Endpoint, overall): 70.8 | mean IBS-QOL total score ([1]; at the start of Study 3007 (after 12 weeks of Study 3006), C/C): 69.5 | beneficial effect on the QOL observed during Study 3006 ([1]; during Study 3007, C/C): maintained | Treatment-related AE: Alanine aminotransferase increased ([2]; 2 mg prn (N = 301)): 9 (3) N (%) | Treatment-related AE: Diarrhea (not otherwise specified) ([2]; 2 mg prn (N = 301)): 5 (2) N (%) | Treatment-related AE: Flatulence ([2]; 2 mg prn (N = 301)): 6 (2) N (%) | Treatment-related AE: Headache (not otherwise specified) ([2]; 2 mg prn (N = 301)): 13 (4) N (%) | Treatment-related AE: Nausea ([2]; 2 mg prn (N = 301)): 15 (5) N (%) | Treatment-related AE: Rectal Hemmorhage ([2]; 2 mg prn (N = 301)): 8 (3) N (%) | treatment-related AE: abdominal pain not otherwise specified ([2]; 2 mg prn (N = 301)): 16 (5) N (%) | treatment-related AE: constipation ([2]; 2 mg prn (N = 301)): 24 (8) N (%) | AE incidence: GI and abdominal pain (excluding oral and throat) ([2]; cilansetron group): 12% | AE incidence: GI atonic and hypomotility disorders ([2]; cilansetron group): 11% | AE incidence: nausea and vomiting ([2]; cilansetron group): 7% | AE leading to study discontinuation: abdominal pain ([2]; cilansetron group): 2% | AE leading to study discontinuation: constipation ([2]; cilansetron group): 2% | treatment-related AE: abdominal pain not otherwise specified ([2]; cilansetron group): 5% | treatment-related AE: constipation ([2]; cilansetron group): 8% | withdrawals due to AEs ([2]; cilansetron group): 10% | withdrawals due to lack of efficacy ([2]; cilansetron group): 15% | IBS-QoL subscale score: Body Image [3, 5]: 61.7 | IBS-QoL subscale score: Dysphoria [3, 5]: 47.4 | IBS-QoL subscale score: Food avoidance [3, 5]: 38.3 | IBS-QoL subscale score: Health Worry [3, 5]: 65.3 | IBS-QoL subscale score: Interference with activity [3, 5]: 41.1 | IBS-QoL subscale score: Relationship [3, 5]: 62.5 | IBS-QoL subscale score: Sexual [3, 5]: 72.2 | IBS-QoL subscale score: Social Reaction [3, 5]: 58.3 | change from baseline of IBS-QoL total score, interference with activity, body image, sexual score and dysphoria ([3]; p<0.050): significant improvement | TEAE leading to permanent discontinuation: Oesophageal Reflux Aggravated ([4]; both): 1 (<1%) n (%) | TEAE: Oesophageal Reflux Aggravated ([4]; both, 52 weeks): 3 (<1%) n (%) | TEAE: Gastrooesophageal Reflux Disease ([4]; 52 weeks): 4 (<1%) n (%)
